Assays:
pERK = test: PD analysis: Western blotting of PBMCs from normal volunteers after a single naltrexone tablet; format: in vivo, human; conditions: Western blot
Experimental: There were 5 treatment cohorts with 8 normal volunteers in each cohort. […] PBMCs were harvested at 0 and 48 h by ficoll extraction and lysed in cell lysis buffer. Western blotting was then performed on the samples, and pERK, tERK, BAX and p21 measured.

[1] = test system: CD3+/CD8+ cells (killer T-cells); test: CD3+ activation: CD69 expression of PBMCs cultured with LDN or NTX (flow cytometry); format: cell-based; conditions: 48 h culture of PBMCs
Experimental: Peripheral-blood mononuclear cells were isolated from whole blood or from the residue product of leucoreduction of whole blood from pathologically healthy donors using Histopaque-1077. The mononuclear fraction was harvested and red blood cell contamination removed by incubation in hypotonic ammonium chloride. Cells were washed in phosphate buffered saline (PBS) and platelet contamination removed by centrifugation at 200 g for 10 min, re-suspended at a concentration of 1×10^6 ml in RPMI-1640 culture medium. […] Peripheral-blood mononuclear cells were washed twice in wash buffer (PBS containing 1% (v/v) FBS and 0.09% (v/v) NaN3), and stained for 30 min at 4° C. with the relevant and stated antibodies for assessment of immune cell profile. Cells were washed in wash buffer and fixed in 4% paraformaldehyde for 20 min at 4° C. Expressions of the surface markers were analysed using a BD Bioscience LSR II flow cytometer with dedicated proprietary software.

O=C1CC[C@@]2(O)[C@H]3Cc4ccc(O)c5c4[C@@]2(CCN3CC2CC2)[C@H]1O5 [naltrexone, morphinan-6-one,17-(cyclopropylmethyl)-4,5-epoxy-3,14-dihydroxy-(5+)]
level of pERK expression at 48 h compared to 0 h (pERK; single dose 1 mg tablet): decreased | level of pERK expression at 48 h compared to 0 h (pERK; single dose 3 mg tablet): increased | level of pERK expression at 48 h compared to 0 h (pERK; single dose 4.5 mg tablet): decreased | level of pERK expression at 48 h compared to 0 h (pERK; single dose 6 mg tablet): decreased | level of pERK expression at 48 h compared to 0 h (pERK; single dose 10 mg tablet): decreased | CD69 expression in CD3+/CD8+ cells ([1]; 10 nM naltrexone (LDN)): increased | CD69 expression in CD3+/CD8+ cells ([1]; 10 uM naltrexone (NTX)): did not increase

Source: patent publication US20220196659A1, “METHOD FOR DETERMINING EFFICACY” (LDN Pharma Limited, priority 2019, published 2022)
